Source: PubChem BioAssay AID1349 (Sanford-Burnham Center for Chemical Genomics, 2008)
Activity calls are given as the source filed them.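 How the source made its calls: active means survival above the stress-only control level plus 20 points, here above 50%; inactive means the rest.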

Test system: CSM14.1 tunicamycin-induced death, Annexin V/PI flow, 72 h
Test: rescue of CSM14.1 cells from tunicamycin, SAR follow-up, orthogonal assay for ER stress death inhibitor project, undifferentiated CSM14.1, flow cytometry (AID 1349)
Settings: at 25 µM; hits give high values

SMILES	survival
CCOc1cccc(C2Nc3ccccc3NC3=C2C(=O)CC(c2ccc(OC)cc2)C3)c1 (stereo unspecified)	49% (inactive)
O=C1CC(c2ccccc2)CC2=C1C(c1c(F)cccc1Cl)Nc1ccccc1N2 (stereo unspecified)	58%
CCCOc1ccc(C2Nc3ccccc3NC3=C2C(=O)CC(c2ccc(OC)c(OC)c2)C3)cc1 (stereo unspecified)	74%
CC1(C)CC(=O)C2=C(C1)Nc1ccccc1NC2c1ccc(-c2ccccc2)cc1 (stereo unspecified)	92%
CCOc1cc(C2Nc3ccccc3NC3=C2C(=O)CC(c2ccc(OC)cc2)C3)cc(Cl)c1O (stereo unspecified)	52%
COc1ccc(C2CC(=O)C3=C(C2)Nc2ccccc2NC3c2cccc(Oc3ccccc3)c2)cc1OC (stereo unspecified)	54%
CSc1ccc(C2Nc3ccccc3NC3=C2C(=O)CC(c2ccccc2)C3)cc1 (stereo unspecified)	62%
COc1ccc(C2CC(=O)C3=C(C2)Nc2ccccc2NC3c2ccccc2C(F)(F)F)cc1OC (stereo unspecified)	65%
COc1ccc(C2CC(=O)C3=C(C2)Nc2ccccc2NC3c2cccc(Br)c2)cc1OC (stereo unspecified)	67%
COc1ccc(C2CC(=O)C3=C(C2)Nc2ccccc2NC3c2cc(C)ccc2C)cc1 (stereo unspecified)	70%
COc1ccc(C2CC(=O)C3=C(C2)Nc2ccccc2NC3c2cccc(C(F)(F)F)c2)cc1OC (stereo unspecified)	82%
